This is an account of results in patent US5929075A, “Apolipoprotein-B synthesis inhibitors” (Janssen Pharmaceutica, N.V., priority 1994, dated 1999).

Each structure is given as a SMILES string.

This assay concerns apolipoprotein B. In words: Apolipoprotein B (apo B) inhibition test in cultured human liver cells (Hepg2-cells). The assay is classed as cell-based. The settings on record: concentration of the drug needed to reduce apoB secretion to 50% of the control, overnight at 37° C. The protocol:
Cultured human liver cells (Hepg2-cells), which synthesize and secrete low-density lipoproteins, were incubated overnight at 37° C. in a liquid medium containing radioactively labelled leucine. Thus radioactively labelled leucine was incorporated into the apolipoprotein B. The liquid medium was decanted and the apolipoprotein B was isolated by means of a double immunoprecipitation, i.e. first an apolipoprotein B-specific antibody (antibody1) was added to the liquid medium and subsequently a second antibody (antibody2) was added which binds specifically to the apoB-antibody1 -complex. The thus formed apoB-antibody1 -antibody2 complex precipitated and was isolated by centrifuge. Quantification of the amount of apolipoprotein B synthesized during the night resulted from measuring the radioactivity of the isolated complex. To measure the inhibiting activity of the test compound, that test compound was added to the liquid medium at different concentrations and the concentration of apolipoprotein B synthesized in the presence of a test compound (concentration apoB(after)) was compared to the concentration of apolipoprotein B which was synthesized in the absence of the test compound (concentration apoB(control)). For each experiment the inhibition of apolipoprotein-B formation was expressed as
% inhibition=100×(1-concentration of apoB(after)/concentration
When more experiments were carried out for the same concentration, the median value of the inhibition calculated for these experiments was calculated. IC50 -values (concentration of the drug needed to reduce apoB secretion to 50% of the control) were also computed.

Usually IC50 stands for the concentration that gives 50% inhibition. Regarding `CCC(C)n1cnn(-c2ccc(N3CCN(c4ccc(OC[C@H]5CO[C@](CSc6ncnn6C)(c6ccc(Cl)cc6)O5)cc4)CC3)cc2)c1=O` (relative stereo) [Compound 69], the concentration for half-maximal inhibition (IC50) was determined as 26 nM.

Turning to `Cn1cnnc1SC[C@@]1(c2ccc(Cl)cc2)OC[C@@H](COc2ccc(N3CCN(c4ccc(-n5cnn(C6CCCC6)c5=O)cc4)CC3)cc2)O1` (relative stereo) [Compound 24], the IC50 came out at 58 nM. Against the preceding compound, the IC50 is about 2.2-fold higher.

For `CCC(C)n1ncn(-c2ccc(N3CCN(c4ccc(OC[C@H]5CO[C@](CSc6nncn6CC(C)C)(c6ccc(Cl)cc6)O5)cc4)CC3)cc2)c1=O` (relative stereo) [Compound 54], the IC50 was determined as 79 nM.

As to `CC(C)Cn1cnn(-c2ccc(N3CCN(c4ccc(OC[C@H]5CO[C@](CSc6ncn[nH]6)(c6ccc(Cl)cc6)O5)cc4)CC3)cc2)c1=O` (relative stereo) [Compound 84], the IC50 amounted to 28 nM.

`CCC(C)n1ncn(-c2ccc(N3CCN(c4ccc(OC[C@H]5CO[C@](CSc6ncnn6C)(c6ccc(Cl)cc6)O5)cc4)CC3)cc2)c1=O` (relative stereo) [Compound 60] yielded an IC50 of 46 nM.

Turning to `CC[C@H](C)n1ncn(-c2ccc(N3CCN(c4ccc(OC[C@@H]5CO[C@@](CSc6nncn6C)(c6ccc(Cl)cc6)O5)cc4)CC3)cc2)c1=O` [Compound 38], the IC50 stood at 65 nM.

In turn, `CCC(C)n1ncn(-c2ccc(N3CCN(c4ccc(OC[C@@H]5CO[C@@](CSc6nncn6C)(c6ccc(Cl)cc6)O5)cc4)CC3)cc2)c1=O` (relative stereo) [Compound 22, (±)-cis-4-[4-[4-[4-[[2-(4-chlorophenyl)-2-[[(4-methyl-4H-1,2,4-triazol-3-yl)thio]methyl]-1,3-dioxolan-4-yl]methoxy]phenyl]-1-piperazinyl]-phenyl]-2,4-dihydro-2-(1-methylpropyl)-3H-1,2,4-triazol-3-one] registered an IC50 of 71 nM.

Compound `CCCn1cnn(-c2ccc(N3CCN(c4ccc(OC[C@@H]5CO[C@@](CSc6nncn6C)(c6ccc(Cl)cc6)O5)cc4)CC3)cc2)c1=O` (relative stereo) [Compound 8] showed an IC50 of 130 nM.

Take `CCC(CC)n1ccn(-c2ccc(N3CCN(c4ccc(OC[C@H]5CO[C@](CSc6nncn6C)(c6ccc(Cl)cc6)O5)cc4)CC3)cc2)c1=O` (relative stereo) [Compound 122]: the IC50 worked out at 88 nM.

For `CCC(C)n1ncn(-c2ccc(N3CCN(c4ccc(OC[C@H]5CO[C@](CSc6ncnn6CC)(c6ccc(Cl)cc6)O5)cc4)CC3)cc2)c1=O` (relative stereo) [Compound 77], the IC50 amounted to 71 nM.

`CCC(CC)n1cnn(-c2ccc(N3CCN(c4ccc(OC[C@H]5CO[C@](CSc6ncnn6C)(c6ccc(F)cc6)O5)cc4)CC3)cc2)c1=O` (relative stereo) [Compound 75] registered a concentration for half-maximal inhibition (IC50) of 120 nM.

Regarding `CCCCCn1cnn(-c2ccc(N3CCN(c4ccc(OC[C@@H]5CO[C@@](CSc6nncn6C)(c6ccc(Cl)cc6)O5)cc4)CC3)cc2)c1=O` (relative stereo) [Compound 18], the IC50 amounted to 41 nM.

For `Cn1cnnc1SC[C@]1(c2ccc(F)cc2)OC[C@H](COc2ccc(N3CCN(c4ccc(-n5ccn(C6CCCC6)c5=O)cc4)CC3)cc2)O1` (relative stereo) [Compound 128], inhibition was half-maximal at 180 nM (IC50). Against the preceding compound, the IC50 is about 4.4-fold higher.

Compound `CCC(C)n1ncn(-c2ccc(N3CCN(c4ccc(OC[C@@H]5CO[C@@](CSc6nnc(C(F)(F)F)[nH]6)(c6ccc(Cl)cc6)O5)cc4)CC3)cc2)c1=O` (relative stereo) [Compound 49] registered a half-inhibitory concentration (IC50) of 850 nM.

Compound `Cn1cnnc1SC[C@]1(c2ccc(Cl)cc2)OC[C@H](COc2ccc(N3CCN(c4ccc(-n5ccn(C6CCCC6)c5=O)cc4)CC3)cc2)O1` (relative stereo) [Compound 123] came in with an IC50 of 74 nM.

Consider `CC(C)Cn1cnn(-c2ccc(N3CCN(c4ccc(OC[C@H]5CO[C@](CSc6ncnn6C)(c6ccc(Cl)cc6)O5)cc4)CC3)cc2)c1=O` (relative stereo) [Compound 87], for which the IC50 amounted to 69 nM.

In the case of `CCC(C)n1ncn(-c2ccc(N3CCN(c4ccc(OC[C@@H]5CO[C@@](CSc6ncn(C(C)C)n6)(c6ccc(Cl)cc6)O5)cc4)CC3)cc2)c1=O` (relative stereo) [Compound 112, (±)-cis-4-[4-[4-[4-[[2-(4-chlorophenyl)-2-[[[1-(1-methylethyl)-1H-1,2,4-triazol-3-yl]thio]methyl]-1,3-dioxolan-4-yl]methoxy]phenyl]-1-piperazinyl]phenyl]-2,4-dihydro-2-(1-methylpropyl)-3H-1,2,4-triazol-3-one], inhibition was half-maximal at 980 nM (IC50).

With `CC(C)n1cnn(-c2ccc(N3CCN(c4ccc(OC[C@@H]5CO[C@@](CSc6nncn6C)(c6ccc(Cl)cc6)O5)cc4)CC3)cc2)c1=O` (relative stereo) [Compound 1], it took 92 nM to reach half-maximal inhibition (IC50). Against the preceding compound, the IC50 is about 11-fold lower.

`CCC(C)n1ncn(-c2ccc(N3CCN(c4ccc(OC[C@H]5CO[C@](CSc6nc(C)cc(C)n6)(c6ccc(Cl)cc6)O5)cc4)CC3)cc2)c1=O` (relative stereo) [Compound 102] had an IC50 of 370 nM.

Compound `CC(C)Cn1cnn(-c2ccc(N3CCN(c4ccc(OC[C@@H]5CO[C@@](CSc6nncn6C)(c6ccc(Cl)cc6)O5)cc4)CC3)cc2)c1=O` (relative stereo) [Compound 3] displayed an IC50 of 91 nM. Against the preceding compound, the IC50 is about 4.1-fold lower.

`Cn1cnnc1SC[C@@]1(c2ccc(F)cc2F)OC[C@@H](COc2ccc(N3CCN(c4ccc(-n5ncn(C6CCCC6)c5=O)cc4)CC3)cc2)O1` (relative stereo) [Compound 13]: half-maximal inhibition (IC50) was put at 510 nM. This IC50 is about 5.6-fold higher than that of the compound before.

`CCC(C)n1ncn(-c2ccc(N3CCN(c4ccc(OC[C@H]5CO[C@](CSc6nnc(C)n6C)(c6ccc(Cl)cc6)O5)cc4)CC3)cc2)c1=O` (relative stereo) [Compound 56]: it took 230 nM to reach half-maximal inhibition (IC50).

Regarding `CCC(C)n1ccn(-c2ccc(N3CCN(c4ccc(OC[C@H]5CO[C@](CSc6nncn6C)(c6ccc(Cl)cc6)O5)cc4)CC3)cc2)c1=O` (relative stereo) [Compound 93], 27 nM corresponded to half-maximal inhibition (IC50).

In turn, `CCC(C)n1ncn(-c2ccc(N3CCN(c4ccc(OC[C@H]5CO[C@](CSc6nnnn6C)(c6ccc(Cl)cc6)O5)cc4)CC3)cc2)c1=O` (relative stereo) [Compound 88] gave an IC50 of 450 nM.

Compound `Cn1cnnc1SC[C@@]1(c2ccc(F)cc2)OC[C@@H](COc2ccc(N3CCN(c4ccc(-n5cnn(C6CCCC6)c5=O)cc4)CC3)cc2)O1` (relative stereo) [Compound 35] came in with an IC50 of 77 nM.

Compound `CCC(CC)n1ccn(-c2ccc(N3CCN(c4ccc(OC[C@H]5CO[C@](CSc6nncn6C)(c6ccc(F)cc6)O5)cc4)CC3)cc2)c1=O` (relative stereo) [Compound 130] came in with an IC50 of 140 nM.

In turn, `CCC(C)n1ncn(-c2ccc(N3CCN(c4ccc(OC[C@H]5CO[C@](CSc6ccccn6)(c6ccc(Cl)cc6)O5)cc4)CC3)cc2)c1=O` (relative stereo) [Compound 105] registered an IC50 of 99 nM.

For `CCC(CC)n1cnn(-c2ccc(N3CCN(c4ccc(OC[C@@H]5CO[C@@](CSc6nncn6C)(c6ccc(F)cc6)O5)cc4)CC3)cc2)c1=O` (relative stereo) [Compound 12], the IC50 was 190 nM.

As for `CCCCn1cnn(-c2ccc(N3CCN(c4ccc(OC[C@@H]5CO[C@@](CSc6nncn6C)(c6ccc(Cl)cc6)O5)cc4)CC3)cc2)c1=O` (relative stereo) [Compound 15], the IC50 was found to be 48 nM. Against the preceding compound, the IC50 is about 4-fold lower.

For `Cn1ncnc1SC[C@]1(c2ccc(F)cc2)OC[C@H](COc2ccc(N3CCN(c4ccc(-n5cnn(C6CCCC6)c5=O)cc4)CC3)cc2)O1` (relative stereo) [Compound 66], the midpoint of inhibition, the IC50, lay at 130 nM.
